Laboratory results reported in ChEMBL document CHEMBL3784918, “Novel 2,4-diaminopyrimidines bearing tetrahydronaphthalenyl moiety against anaplastic lymphoma kinase (ALK): Synthesis, in vitro, ex vivo, and in vivo efficacy studies” (Bioorg Med Chem Lett, 2016).
Activity calls are given as the source filed them. The calls are words filed in the database; no cut-off is given here.

What was measured:
[1] = Tmax in cannulated Sprague Dawley rat at 10 mg/kg administered through oral gavage by LC/MS/MS analysis; format: ADME, organism-based; conditions: in vivo
CYP1A2 = CYP1A2 (Homo sapiens, UniProt P05177); test: Inhibition of CYP1A2 (unknown origin) at 10 uM; format: ADME
CYP1A2, sequence (P05177 whole entry): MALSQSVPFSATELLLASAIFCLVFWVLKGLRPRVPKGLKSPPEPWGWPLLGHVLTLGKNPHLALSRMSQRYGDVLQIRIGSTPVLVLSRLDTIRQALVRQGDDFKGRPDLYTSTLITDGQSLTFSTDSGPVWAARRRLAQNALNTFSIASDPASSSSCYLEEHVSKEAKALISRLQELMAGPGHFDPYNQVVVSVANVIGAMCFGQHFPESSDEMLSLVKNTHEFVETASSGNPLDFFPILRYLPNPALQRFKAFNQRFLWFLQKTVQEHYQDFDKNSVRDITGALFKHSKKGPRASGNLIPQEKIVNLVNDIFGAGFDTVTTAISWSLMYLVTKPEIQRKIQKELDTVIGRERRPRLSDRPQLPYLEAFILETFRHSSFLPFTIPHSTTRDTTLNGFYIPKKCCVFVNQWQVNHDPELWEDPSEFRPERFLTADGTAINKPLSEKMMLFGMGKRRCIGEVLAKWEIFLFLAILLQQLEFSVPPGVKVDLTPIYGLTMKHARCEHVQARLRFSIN

CYP2C9 = CYP2C9 (Homo sapiens, UniProt P11712); test: Inhibition of CYP2C9 (unknown origin) at 10 uM; format: ADME
CYP2C9, sequence (P11712 whole entry): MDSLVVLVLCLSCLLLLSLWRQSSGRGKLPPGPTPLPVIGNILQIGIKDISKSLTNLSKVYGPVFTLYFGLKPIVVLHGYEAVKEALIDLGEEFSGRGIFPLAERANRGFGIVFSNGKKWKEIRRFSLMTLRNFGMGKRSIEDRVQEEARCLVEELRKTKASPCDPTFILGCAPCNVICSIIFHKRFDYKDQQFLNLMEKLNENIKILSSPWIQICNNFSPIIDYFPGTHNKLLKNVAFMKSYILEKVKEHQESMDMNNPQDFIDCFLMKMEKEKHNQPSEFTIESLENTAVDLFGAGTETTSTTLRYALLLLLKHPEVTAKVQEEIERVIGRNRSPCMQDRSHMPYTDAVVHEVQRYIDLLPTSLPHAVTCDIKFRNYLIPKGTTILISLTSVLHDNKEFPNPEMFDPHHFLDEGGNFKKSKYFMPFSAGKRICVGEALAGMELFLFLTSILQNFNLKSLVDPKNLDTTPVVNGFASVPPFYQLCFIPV

CYP2D6 = CYP2D6 (Homo sapiens, UniProt P10635); test: Inhibition of CYP2D6 (unknown origin) at 10 uM; format: ADME
CYP2D6, sequence (P10635 whole entry): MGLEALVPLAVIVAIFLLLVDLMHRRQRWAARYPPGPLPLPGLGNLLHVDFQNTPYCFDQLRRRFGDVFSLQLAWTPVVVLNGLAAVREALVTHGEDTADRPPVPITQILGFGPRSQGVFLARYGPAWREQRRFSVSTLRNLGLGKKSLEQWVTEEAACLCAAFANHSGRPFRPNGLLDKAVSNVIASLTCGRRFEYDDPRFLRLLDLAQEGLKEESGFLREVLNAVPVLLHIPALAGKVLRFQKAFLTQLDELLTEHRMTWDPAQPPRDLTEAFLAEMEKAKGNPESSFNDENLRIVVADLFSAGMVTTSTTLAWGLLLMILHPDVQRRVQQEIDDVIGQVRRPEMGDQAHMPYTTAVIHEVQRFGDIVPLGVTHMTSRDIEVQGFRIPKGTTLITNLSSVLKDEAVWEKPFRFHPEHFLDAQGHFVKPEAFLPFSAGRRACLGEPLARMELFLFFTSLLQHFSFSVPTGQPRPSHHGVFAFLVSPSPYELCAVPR

CYP3A4 = CYP3A4 (Homo sapiens, UniProt P08684); test: Inhibition of CYP3A4 (unknown origin) at 10 uM; format: ADME
CYP3A4, sequence (P08684 whole entry): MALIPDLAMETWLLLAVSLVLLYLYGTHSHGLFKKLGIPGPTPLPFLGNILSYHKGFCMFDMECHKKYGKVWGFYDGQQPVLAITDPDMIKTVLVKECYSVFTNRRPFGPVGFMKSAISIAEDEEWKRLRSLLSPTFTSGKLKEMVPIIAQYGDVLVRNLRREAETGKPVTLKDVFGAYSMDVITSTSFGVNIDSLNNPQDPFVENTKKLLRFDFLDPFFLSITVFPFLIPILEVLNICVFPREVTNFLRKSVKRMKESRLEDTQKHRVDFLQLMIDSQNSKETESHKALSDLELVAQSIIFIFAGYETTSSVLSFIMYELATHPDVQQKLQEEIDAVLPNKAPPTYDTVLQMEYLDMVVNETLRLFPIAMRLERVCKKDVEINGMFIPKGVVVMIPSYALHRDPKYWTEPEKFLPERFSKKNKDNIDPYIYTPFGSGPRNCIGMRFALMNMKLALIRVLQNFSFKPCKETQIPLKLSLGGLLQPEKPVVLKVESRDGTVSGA

CYP2C19 = CYP2C19 (Homo sapiens, UniProt P33261); test: Inhibition of CYP2C19 (unknown origin) at 10 uM; format: ADME
CYP2C19, sequence (P33261 whole entry): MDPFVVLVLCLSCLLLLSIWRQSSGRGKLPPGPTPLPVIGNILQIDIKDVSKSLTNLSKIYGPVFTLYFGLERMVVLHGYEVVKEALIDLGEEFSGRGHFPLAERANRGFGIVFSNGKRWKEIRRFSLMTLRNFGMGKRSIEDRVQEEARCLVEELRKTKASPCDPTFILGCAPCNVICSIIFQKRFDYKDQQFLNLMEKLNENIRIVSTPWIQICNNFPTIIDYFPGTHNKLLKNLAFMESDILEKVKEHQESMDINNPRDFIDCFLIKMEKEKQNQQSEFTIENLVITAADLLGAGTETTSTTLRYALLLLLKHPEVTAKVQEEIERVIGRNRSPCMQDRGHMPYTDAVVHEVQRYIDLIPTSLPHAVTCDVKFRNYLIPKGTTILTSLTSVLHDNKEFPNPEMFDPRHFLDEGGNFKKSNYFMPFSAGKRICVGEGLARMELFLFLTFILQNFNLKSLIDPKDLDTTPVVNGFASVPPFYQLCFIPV

[2] = Cmax in cannulated Sprague Dawley rat at 10 mg/kg administered through oral gavage by LC/MS/MS analysis; format: ADME, organism-based; design: dose 10 mg/kg, route oral; conditions: in vivo
[3] = Half life in cannulated Sprague Dawley rat at 10 mg/kg administered through oral gavage by LC/MS/MS analysis; format: ADME, organism-based; conditions: in vivo
[4] = AUCt in cannulated Sprague Dawley rat at 10 mg/kg administered through oral gavage by LC/MS/MS analysis; format: ADME, organism-based; conditions: in vivo
[5] = AUCinfinity in cannulated Sprague Dawley rat at 10 mg/kg administered through oral gavage by LC/MS/MS analysis; format: ADME, organism-based; design: dose 10 mg/kg, time infinity, route oral; conditions: in vivo
NCI-H3122 [6] = test: Antitumor activity against human NCI-H3122 cells xenografted in SCID mouse assessed as tumor growth inhibition at 50 mg/kg, po administered qd for 14 days; format: functional, organism-based
Mus musculus [7] = test: Toxicity in SCID mouse xenografted with human H3122 cells assessed as change in body weight at 50 mg/kg, po administered qd for 14 days measured during compound dosing; format: organism-based; conditions: in vivo, 336 h
[8] = target: T1, ALK tyrosine kinase receptor (Homo sapiens, UniProt Q9UM73); test: Inhibition of wild type ALK (unknown origin) after 30 mins by HTRF assay
Target sequence in this assay (Q9UM73 whole entry): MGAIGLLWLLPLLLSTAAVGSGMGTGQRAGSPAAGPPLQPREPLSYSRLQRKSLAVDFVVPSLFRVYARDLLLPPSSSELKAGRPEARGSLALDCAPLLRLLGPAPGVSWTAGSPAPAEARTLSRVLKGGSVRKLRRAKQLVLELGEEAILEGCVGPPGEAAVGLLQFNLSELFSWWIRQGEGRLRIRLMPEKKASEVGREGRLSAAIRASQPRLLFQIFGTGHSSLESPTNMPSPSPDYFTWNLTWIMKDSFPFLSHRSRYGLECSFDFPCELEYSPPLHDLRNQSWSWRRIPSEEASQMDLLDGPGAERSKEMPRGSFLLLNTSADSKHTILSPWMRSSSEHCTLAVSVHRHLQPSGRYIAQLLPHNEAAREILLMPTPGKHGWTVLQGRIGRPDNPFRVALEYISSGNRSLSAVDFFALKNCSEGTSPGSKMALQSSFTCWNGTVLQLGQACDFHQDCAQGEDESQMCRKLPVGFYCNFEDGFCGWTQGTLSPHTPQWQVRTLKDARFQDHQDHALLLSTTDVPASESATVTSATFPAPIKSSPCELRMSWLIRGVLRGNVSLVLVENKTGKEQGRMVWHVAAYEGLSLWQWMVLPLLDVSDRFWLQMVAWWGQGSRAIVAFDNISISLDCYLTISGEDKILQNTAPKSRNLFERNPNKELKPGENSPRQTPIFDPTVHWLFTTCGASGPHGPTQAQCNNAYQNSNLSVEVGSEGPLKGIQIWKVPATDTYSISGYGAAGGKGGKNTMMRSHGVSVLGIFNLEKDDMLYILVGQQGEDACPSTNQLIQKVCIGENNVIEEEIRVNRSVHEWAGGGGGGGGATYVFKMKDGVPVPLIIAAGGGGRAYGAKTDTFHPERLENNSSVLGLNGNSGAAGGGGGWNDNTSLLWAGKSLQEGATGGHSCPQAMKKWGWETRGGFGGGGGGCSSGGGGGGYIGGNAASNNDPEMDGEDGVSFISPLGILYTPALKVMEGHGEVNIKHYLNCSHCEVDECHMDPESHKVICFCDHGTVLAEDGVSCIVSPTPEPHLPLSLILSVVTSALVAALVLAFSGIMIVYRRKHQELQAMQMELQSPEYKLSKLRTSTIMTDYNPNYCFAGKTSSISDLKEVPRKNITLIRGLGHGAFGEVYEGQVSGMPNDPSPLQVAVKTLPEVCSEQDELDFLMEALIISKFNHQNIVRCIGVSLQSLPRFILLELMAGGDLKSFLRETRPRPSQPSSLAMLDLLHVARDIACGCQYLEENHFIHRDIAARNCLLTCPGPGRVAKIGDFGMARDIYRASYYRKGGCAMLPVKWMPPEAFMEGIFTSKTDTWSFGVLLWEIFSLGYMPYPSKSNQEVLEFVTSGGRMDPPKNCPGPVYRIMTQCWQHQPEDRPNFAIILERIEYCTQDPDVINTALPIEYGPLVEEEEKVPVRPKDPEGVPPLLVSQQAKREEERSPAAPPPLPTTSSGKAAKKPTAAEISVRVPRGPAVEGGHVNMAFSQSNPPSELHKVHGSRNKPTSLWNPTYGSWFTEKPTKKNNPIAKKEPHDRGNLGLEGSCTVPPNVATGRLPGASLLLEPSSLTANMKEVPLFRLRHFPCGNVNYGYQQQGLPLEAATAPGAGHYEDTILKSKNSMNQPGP

[9] = target: ALK tyrosine kinase receptor (Homo sapiens, UniProt Q9UM73, L1196M); test: Inhibition of ALK L1196M mutant (unknown origin) after 30 mins by HTRF assay
EML4-ALK (Homo sapiens) = EML4-ALK (Homo sapiens) (UniProt Q9UM73+Q9HC35); test: Inhibition of EML4-ALK in human NCI-H3122 cells assessed as inhibition of cell proliferation after 72 hrs by SRB assay; format: cell-based
BaF3 = test: Inhibition of ALK L1196M mutant in mouse BA/F3 cells assessed as inhibition of cell proliferation after 72 hrs by WST1 assay; format: cell-based
[10] = Metabolic stability of the compound in human liver microsomes assessed as compound remaining at 1 uM after 30 mins by LC/MS/MS analysis in the presence of NADPH; format: ADME; conditions: read-out: Stability
[11] = Metabolic stability of the compound in mouse liver microsomes assessed as compound remaining at 1 uM after 30 mins by LC/MS/MS analysis in the presence of NADPH; format: ADME; conditions: read-out: Stability
NCI-H3122 [12] = test: Antitumor activity against human NCI-H3122 cells xenografted in SCID mouse assessed as tumor growth inhibition at 25 mg/kg, po administered qd for 14 days; format: functional, organism-based
[13] = target: Focal adhesion kinase 1 (Homo sapiens) (UniProt Q05397); test: Inhibition of human FAK at 1 uM after 30 mins by fluorescence assay in presence of ATP
[14] = target: Insulin receptor (Homo sapiens) (UniProt P06213); test: Inhibition of human IR at 1 uM after 30 mins by fluorescence assay in presence of ATP
[15] = target: Activated CDC42 kinase 1 (Homo sapiens) (UniProt Q07912); test: Inhibition of human ACK1 at 1 uM after 30 mins by fluorescence assay in presence of ATP
[16] = target: Fibroblast growth factor receptor 1 (Homo sapiens) (UniProt P11362); test: Inhibition of human FGFR1 at 1 uM after 30 mins by fluorescence assay in presence of ATP
[17] = target: Receptor-type tyrosine-protein kinase FLT3 (Homo sapiens) (UniProt P36888); test: Inhibition of human FLT3 at 1 uM after 30 mins by fluorescence assay in presence of ATP
[18] = target: Tyrosine-protein kinase Mer (Homo sapiens) (UniProt Q12866); test: Inhibition of human MER at 1 uM after 30 mins by fluorescence assay in presence of ATP
[19] = target: Ribosomal protein S6 kinase alpha-1 (Homo sapiens) (UniProt Q15418); test: Inhibition of human RSK1 at 1 uM after 30 mins by fluorescence assay in presence of ATP
Ribosomal protein S6 kinase alpha-1 (Homo sapiens), sequence (Q15418 whole entry): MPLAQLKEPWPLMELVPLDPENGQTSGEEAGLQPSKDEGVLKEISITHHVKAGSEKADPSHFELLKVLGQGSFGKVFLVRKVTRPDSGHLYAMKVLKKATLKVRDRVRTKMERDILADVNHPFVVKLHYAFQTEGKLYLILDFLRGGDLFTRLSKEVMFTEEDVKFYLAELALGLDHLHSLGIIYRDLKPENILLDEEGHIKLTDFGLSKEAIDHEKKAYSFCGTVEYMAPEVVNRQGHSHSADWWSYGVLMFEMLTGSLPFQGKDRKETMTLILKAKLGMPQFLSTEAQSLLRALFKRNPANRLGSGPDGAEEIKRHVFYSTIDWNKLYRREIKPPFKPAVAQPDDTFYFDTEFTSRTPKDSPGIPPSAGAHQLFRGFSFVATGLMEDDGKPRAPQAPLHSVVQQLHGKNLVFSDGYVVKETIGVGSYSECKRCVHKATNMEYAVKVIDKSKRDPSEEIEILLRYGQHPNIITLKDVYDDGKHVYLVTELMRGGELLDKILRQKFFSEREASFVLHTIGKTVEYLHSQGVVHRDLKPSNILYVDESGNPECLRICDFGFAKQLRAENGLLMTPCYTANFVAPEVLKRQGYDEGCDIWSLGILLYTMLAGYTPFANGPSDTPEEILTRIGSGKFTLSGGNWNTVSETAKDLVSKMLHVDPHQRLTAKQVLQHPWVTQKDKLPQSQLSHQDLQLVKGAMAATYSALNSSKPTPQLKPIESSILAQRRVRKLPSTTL

[20] = target: T1, ALK tyrosine kinase receptor; test: Inhibition of human ALK at 1 uM after 30 mins by fluorescence assay in presence of ATP
[21] = target: Insulin-like growth factor 1 receptor (Homo sapiens) (UniProt P08069); test: Inhibition of human IGF1R at 1 uM after 30 mins by fluorescence assay in presence of ATP
[22] = target: Aurora kinase A (Homo sapiens) (UniProt O14965); test: Inhibition of human Aurora A at 1 uM after 30 mins by fluorescence assay in presence of ATP
[23] = target: Serine/threonine-protein kinase Chk2 (Homo sapiens) (UniProt O96017); test: Inhibition of human CHK2 at 1 uM after 30 mins by fluorescence assay in presence of ATP
[24] = target: Epidermal growth factor receptor (Homo sapiens) (UniProt P00533); test: Inhibition of human EGFR at 1 uM after 30 mins by fluorescence assay in presence of ATP
[25] = target: Protein-tyrosine kinase 2-beta (Homo sapiens) (UniProt Q14289); test: Inhibition of human PYK2 at 1 uM after 30 mins by fluorescence assay in presence of ATP
[26] = target: Aurora kinase B (Homo sapiens) (UniProt Q96GD4); test: Inhibition of human Aurora B at 1 uM after 30 mins by fluorescence assay in presence of ATP
[27] = target: Tyrosine-protein kinase receptor UFO (Homo sapiens) (UniProt P30530); test: Inhibition of human AXL at 1 uM after 30 mins by fluorescence assay in presence of ATP
[28] = target: NUAK family SNF1-like kinase 1 (Homo sapiens) (UniProt O60285); test: Inhibition of human ARK5 at 1 uM after 30 mins by fluorescence assay in presence of ATP
[29] = target: Serine/threonine-protein kinase 10 (Homo sapiens) (UniProt O94804); test: Inhibition of human LOK at 1 uM after 30 mins by fluorescence assay in presence of ATP
[30] = target: Proto-oncogene tyrosine-protein kinase ROS (Homo sapiens) (UniProt P08922); test: Inhibition of human ROS at 1 uM after 30 mins by fluorescence assay in presence of ATP
[31] = target: Serine/threonine-protein kinase TAO1 (Homo sapiens) (UniProt Q7L7X3); test: Inhibition of human TAO1 at 1 uM after 30 mins by fluorescence assay in presence of ATP
[32] = target: Testis-specific serine/threonine-protein kinase 1 (Homo sapiens) (UniProt Q9BXA7); test: Inhibition of human TSSK1 at 1 uM after 30 mins by fluorescence assay in presence of ATP
[33] = target: High affinity nerve growth factor receptor (Homo sapiens) (UniProt P04629); test: Inhibition of human TRKA at 1 uM after 30 mins by fluorescence assay in presence of ATP
[34] = target: Tyrosine-protein kinase Yes (Homo sapiens) (UniProt P07947); test: Inhibition of human YES at 1 uM after 30 mins by fluorescence assay in presence of ATP
[35] = target: Serine/threonine-protein kinase N2 (Homo sapiens) (UniProt Q16513); test: Inhibition of human PRK2 at 1 uM after 30 mins by fluorescence assay in presence of ATP
[36] = target: Ephrin type-B receptor 1 (Homo sapiens) (UniProt P54762); test: Inhibition of human EPHB1 at 1 uM after 30 mins by fluorescence assay in presence of ATP
[37] = target: Rho-associated protein kinase 2 (Homo sapiens) (UniProt O75116); test: Inhibition of human ROCK2 at 1 uM after 30 mins by fluorescence assay in presence of ATP
[38] = target: Ephrin type-A receptor 1 (Homo sapiens) (UniProt P21709); test: Inhibition of human EPHA1 at 1 uM after 30 mins by fluorescence assay in presence of ATP
Mus musculus [39] = test: Toxicity in SCID mouse xenografted with human H3122 cells assessed as change in body weight at 25 mg/kg, po administered qd for 14 days measured during compound dosing; format: organism-based; conditions: in vivo, 336 h

COc1cc2c(cc1Nc1ncc(Cl)c(Nc3ccccc3S(=O)(=O)C(C)C)n1)CC/C(=N\N1CCN(C)CC1)C2(C)C
Tmax [1]: 0.833 h | inhibition at 10 µM (CYP1A2): 7.2% | inhibition at 10 µM (CYP2C9): 17.1% | inhibition at 10 µM (CYP2D6): 11.4% | inhibition at 10 µM (CYP3A4): 47.5% | inhibition at 10 µM (CYP2C19): 43.4% | Cmax [2]: 1270 ng/mL | half-life [3]: 3.04 h | AUC(0-t) [4]: 3750 ng·h/mL | AUC(0-inf) [5]: 3760 ng·h/mL | TGI (NCI-H3122 [6]): Active | Activity (Mus musculus [7]): Non-toxic | IC50 [8]: 0.0005 µM | IC50 [9]: 0.0084 µM | CC50 (EML4-ALK (Homo sapiens)): 0.014 µM | CC50 (BaF3): 0.066 µM | remaining at 0.5 h, 1 µM [10]: 20% | remaining at 0.5 h, 1 µM [11]: 14%

COc1cc2c(cc1Nc1ncc(Cl)c(Nc3ccccc3S(=O)(=O)C(C)C)n1)CCC(N)C2(C)C (centres undefined)
Tmax [1]: 5.33 h | inhibition at 10 µM (CYP1A2): 9.5% | inhibition at 10 µM (CYP2C9): 38% | inhibition at 10 µM (CYP2D6): 31% | inhibition at 10 µM (CYP3A4): 97% | inhibition at 10 µM (CYP2C19): 72% | Cmax [2]: 582 ng/mL | half-life [3]: 9.5 h | AUC(0-t) [4]: 8750 ng·h/mL | AUC(0-inf) [5]: 10900 ng·h/mL | TGI (NCI-H3122 [6]): Active | TGI (NCI-H3122 [12]): Active | inhibition [13]: 100% | inhibition [14]: 100% | inhibition [15]: 100% | inhibition [16]: 100% | inhibition [17]: 100% | inhibition [18]: 100% | inhibition [19]: 100% | inhibition [20]: 100% | inhibition [21]: 100% | inhibition [22]: 99% | inhibition [23]: 99% | inhibition [24]: 99% | inhibition [25]: 98% | inhibition [26]: 97% | inhibition [27]: 97% | inhibition [28]: 96% | inhibition [29]: 96% | inhibition [30]: 96% | inhibition [31]: 96% | inhibition [32]: 96% | inhibition [33]: 95% | inhibition [34]: 95% | inhibition [35]: 93% | inhibition [36]: 92% | inhibition [37]: 92% | inhibition [38]: 91% | Activity (Mus musculus [39]): Non-toxic | Activity (Mus musculus [7]): Non-toxic | IC50 [8]: 0.0007 µM | IC50 [9]: 0.0015 µM | CC50 (EML4-ALK (Homo sapiens)): 0.016 µM | CC50 (BaF3): 0.062 µM | remaining at 0.5 h, 1 µM [10]: 56% | remaining at 0.5 h, 1 µM [11]: 23%
